Data reported in US9682087B2 (The Population Council, Inc., priority 2009, dated 2017).

Tests used:
[1] = Absorption of the hormones applied onto the skin; type: in vivo
Description: These levels of these hormones applied onto the skin result in 10% absorption, and thus correspond to a daily dose of about 300 to 450 μg of the progestin and about 100 to 150 μg of the estrogen. Expressed in a different manner, it would also be possible to equate these levels of absorption of these hormones to corresponding plasma levels in the patient.

ovulation = assay: Ovulation blockade by NES at given serum level; type: in vivo; conditions: doses leading to serum levels of 250 pmol/L
[2] = system: androgenic, estrogenic or glucocorticoid actions; conditions: at therapeutic levels; cited from earlier work
[3] = oral administration; cited from earlier work

absorption rate ([1]; female, human, in vivo) | SMILES | absorption rate ([1]; applied in a transdermal manner) | subjects in whom ovulation was blocked (ovulation) | androgenic, estrogenic or glucocorticoid actions [2] | activity when administered orally [3]
– | C=C1C[C@H]2[C@@H]3CCC4=CC(=O)CC[C@@H]4[C@H]3CC[C@]2(C)[C@@]1(OC(C)=O)C(C)=O [NES, 16-methylene-17α-acetoxy-19-norpregn-4-ene-3,20-dione] | approximately 10% | more than 95% | does not carry androgenic, estrogenic or glucocorticoid actions | not active
approximately 10% | C[C@]12CC[C@@H]3c4ccc(O)cc4CC[C@H]3[C@@H]1CC[C@@H]2O [estradiol, 17β-estradiol] | – | – | – | –
